Source: paper PMC11089506 (Journal of Medicinal Chemistry, 2024)
Where a name gives a salt, the structure may show the parent alone. Read-outs that look alike come from different tables or passages of the source.

Tests used:
Melatonin receptor MT1 = molecular target: T1, Melatonin receptor MT1 (Homo sapiens, UniProt P48039); assay: radioligand competition binding, [125I]2-Iodomelatonin
T1 construct: Eurofins

Endothelin receptor ETB = molecular target: T2, Endothelin receptor ETB (Homo sapiens, UniProt P24530); assay: radioligand competition binding, [125I]Endothelin-1
T2 construct: Eurofins

[1] = molecular target: T3, Nicotinic acetylcholine receptor α3β4 (Homo sapiens, UniProt P30926+P32297); assay: radioligand competition binding, [125I]Epibatidine
T3 construct: Eurofins

5-HT1B = molecular target: T4, 5-HT1B (Homo sapiens, UniProt P28222); assay: radioligand competition binding, [3H]GR125743
T4 construct: Eurofins

Bradykinin receptor B1 = molecular target: T5, Bradykinin receptor B1 (Homo sapiens, UniProt P46663); assay: radioligand competition binding, [3H](Des-Arg10, Leu9)-Kallidin
T5 construct: Eurofins

NMDA receptor (PCP) = assay: radioligand competition binding, [3H]TCP; parameters: species or system rat
M5 (muscarinic receptor) = molecular target: T6, M5 (muscarinic receptor) (Homo sapiens, UniProt P08912); assay: radioligand competition binding, [3H]4-DAMP
T6 construct: Eurofins
T6 sequence (P08912 1-532): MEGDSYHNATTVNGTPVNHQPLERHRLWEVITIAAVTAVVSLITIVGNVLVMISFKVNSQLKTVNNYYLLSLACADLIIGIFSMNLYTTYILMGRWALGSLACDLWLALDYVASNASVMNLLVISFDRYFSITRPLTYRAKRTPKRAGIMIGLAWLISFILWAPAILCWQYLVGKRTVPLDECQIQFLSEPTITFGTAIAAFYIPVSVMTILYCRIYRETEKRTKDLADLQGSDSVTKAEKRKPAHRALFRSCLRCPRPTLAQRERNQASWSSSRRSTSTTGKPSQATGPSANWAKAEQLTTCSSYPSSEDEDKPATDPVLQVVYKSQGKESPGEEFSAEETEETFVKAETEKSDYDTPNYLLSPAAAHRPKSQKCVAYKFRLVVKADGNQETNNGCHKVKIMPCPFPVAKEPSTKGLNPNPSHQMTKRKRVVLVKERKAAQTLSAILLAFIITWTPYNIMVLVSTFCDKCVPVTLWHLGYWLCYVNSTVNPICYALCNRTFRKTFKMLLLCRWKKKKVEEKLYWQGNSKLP

[2] = molecular target: T7, D3 (dopaminergic receptor) (Homo sapiens, UniProt P35462); assay: radioligand competition binding, [3H]methyl-spiperone; conditions: read-out: % inhibition of the specific radioligand binding
T7 construct: Eurofins

MDR1 (P-gp) = assay: MDR1-MDCK II permeability assay; type: in vitro ADME; conditions: dog, MDCK-MDR1, pH 7.4
MDR1 = assay: MDR1-MDCK II permeability assay; type: in vitro ADME; conditions: dog, MDCK-MDR1, pH 7.4, Table S6
Tachykinin receptor NK2 = molecular target: T8, Tachykinin receptor NK2 (Homo sapiens, UniProt P21452); assay: radioligand competition binding, [125I]Neurokinin A
T8 construct: Eurofins (contract laboratory)

K+ Channel (hERG) = molecular target: T9, K+ Channel (hERG) (Homo sapiens, UniProt Q12809); assay: radioligand competition binding, [3H]Astemizole; conditions: estimated from the % inhibition data
T9 construct: Eurofins

hERG K+ channel = molecular target: T10, hERG K+ channel (Homo sapiens, UniProt Q12809); assay: radioligand competition binding, [3H]Astemizole; conditions: human, probe [3H]Astemizole; read-out: % inhibition of the specific radioligand binding
T10 construct: Eurofins

5-HT1A = molecular target: T11, 5-HT1A (Homo sapiens, UniProt P08908); assay: radioligand competition binding, [3H]8-OH-DPAT
T11 construct: Eurofins
T11 sequence (P08908 1-422): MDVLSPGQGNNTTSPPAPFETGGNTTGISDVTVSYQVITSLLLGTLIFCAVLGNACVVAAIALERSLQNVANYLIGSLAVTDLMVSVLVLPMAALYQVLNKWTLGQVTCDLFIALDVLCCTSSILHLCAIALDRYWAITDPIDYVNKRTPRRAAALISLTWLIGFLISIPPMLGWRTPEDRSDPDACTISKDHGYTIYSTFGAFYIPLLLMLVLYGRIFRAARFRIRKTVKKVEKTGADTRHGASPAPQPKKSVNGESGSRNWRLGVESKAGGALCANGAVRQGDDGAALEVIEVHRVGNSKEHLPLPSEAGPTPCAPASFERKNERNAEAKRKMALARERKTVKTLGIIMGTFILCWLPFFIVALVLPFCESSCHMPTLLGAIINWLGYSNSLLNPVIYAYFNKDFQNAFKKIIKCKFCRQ

Androgen receptor (NHR) = Androgen receptor (NHR) (Homo sapiens, UniProt P10275); conditions: estimated from the % inhibition data
GABAA receptor (benzod.) = assay: radioligand competition binding, [3H]Flunitrazepam; parameters: species or system rat
Purinergic receptor P2X = assay: radioligand competition binding, [3H]α,β-Methylene-ATP; parameters: species or system rat
β1 (adrenergic receptor) = molecular target: T12, β1 (adrenergic receptor) (Homo sapiens, UniProt P08588); assay: radioligand competition binding, [3H](-)CGP 12177
T12 construct: Eurofins

[3] = molecular target: T13, α2A (adrenergic receptor) (Homo sapiens, UniProt P08913); assay: radioligand competition binding, [3H]RX 821002
T13 construct: Eurofins
T13 sequence (P08913 1-465): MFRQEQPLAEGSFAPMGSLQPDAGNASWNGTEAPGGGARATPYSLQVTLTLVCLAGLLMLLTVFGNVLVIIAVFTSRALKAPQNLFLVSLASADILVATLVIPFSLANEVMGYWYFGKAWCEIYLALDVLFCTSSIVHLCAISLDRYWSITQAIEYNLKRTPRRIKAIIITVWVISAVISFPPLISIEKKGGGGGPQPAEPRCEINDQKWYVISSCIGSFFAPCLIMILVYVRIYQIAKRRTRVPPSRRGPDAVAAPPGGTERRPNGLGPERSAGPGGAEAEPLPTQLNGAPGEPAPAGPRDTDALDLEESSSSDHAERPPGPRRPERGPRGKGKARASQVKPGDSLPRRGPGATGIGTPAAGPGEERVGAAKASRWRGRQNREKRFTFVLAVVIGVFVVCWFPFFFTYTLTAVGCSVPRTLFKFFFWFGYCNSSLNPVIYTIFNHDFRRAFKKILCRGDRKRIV

[4] = estimated from the % inhibition data
[5] = read-out: % inhibition of the specific radioligand binding

T4 sequence (P28222 whole entry): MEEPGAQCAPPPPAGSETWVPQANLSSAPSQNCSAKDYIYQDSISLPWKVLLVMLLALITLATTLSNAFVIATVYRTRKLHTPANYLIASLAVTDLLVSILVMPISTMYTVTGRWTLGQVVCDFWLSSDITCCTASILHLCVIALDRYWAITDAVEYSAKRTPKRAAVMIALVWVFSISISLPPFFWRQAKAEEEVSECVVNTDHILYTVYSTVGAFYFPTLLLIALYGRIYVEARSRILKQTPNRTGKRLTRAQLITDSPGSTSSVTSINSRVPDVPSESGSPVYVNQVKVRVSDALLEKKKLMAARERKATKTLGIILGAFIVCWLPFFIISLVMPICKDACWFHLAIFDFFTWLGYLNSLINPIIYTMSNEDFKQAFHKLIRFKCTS
T5 sequence (P46663 whole entry): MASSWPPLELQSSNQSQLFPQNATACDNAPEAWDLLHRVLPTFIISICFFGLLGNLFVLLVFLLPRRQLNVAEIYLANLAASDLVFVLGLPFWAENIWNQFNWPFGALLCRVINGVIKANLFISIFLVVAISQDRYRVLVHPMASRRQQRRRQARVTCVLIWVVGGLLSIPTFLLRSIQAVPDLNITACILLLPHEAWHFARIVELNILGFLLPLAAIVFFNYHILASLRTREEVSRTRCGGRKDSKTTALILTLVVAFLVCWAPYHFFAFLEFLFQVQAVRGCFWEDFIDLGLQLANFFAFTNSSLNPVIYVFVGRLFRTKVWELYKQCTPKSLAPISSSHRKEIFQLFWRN
T12 sequence (P08588 whole entry): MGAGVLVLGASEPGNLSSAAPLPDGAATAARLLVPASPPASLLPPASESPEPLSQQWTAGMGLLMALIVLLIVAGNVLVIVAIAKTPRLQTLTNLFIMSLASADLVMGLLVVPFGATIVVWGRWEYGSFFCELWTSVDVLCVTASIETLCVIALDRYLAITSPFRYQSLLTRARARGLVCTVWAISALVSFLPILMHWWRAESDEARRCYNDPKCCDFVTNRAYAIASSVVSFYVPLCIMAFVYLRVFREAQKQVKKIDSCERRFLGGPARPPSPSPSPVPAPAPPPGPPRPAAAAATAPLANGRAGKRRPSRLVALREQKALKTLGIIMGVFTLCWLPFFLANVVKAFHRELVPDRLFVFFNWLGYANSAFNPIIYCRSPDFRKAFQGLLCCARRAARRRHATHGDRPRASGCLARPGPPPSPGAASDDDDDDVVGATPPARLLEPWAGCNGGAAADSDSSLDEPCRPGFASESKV
T2 sequence (P24530 27-442): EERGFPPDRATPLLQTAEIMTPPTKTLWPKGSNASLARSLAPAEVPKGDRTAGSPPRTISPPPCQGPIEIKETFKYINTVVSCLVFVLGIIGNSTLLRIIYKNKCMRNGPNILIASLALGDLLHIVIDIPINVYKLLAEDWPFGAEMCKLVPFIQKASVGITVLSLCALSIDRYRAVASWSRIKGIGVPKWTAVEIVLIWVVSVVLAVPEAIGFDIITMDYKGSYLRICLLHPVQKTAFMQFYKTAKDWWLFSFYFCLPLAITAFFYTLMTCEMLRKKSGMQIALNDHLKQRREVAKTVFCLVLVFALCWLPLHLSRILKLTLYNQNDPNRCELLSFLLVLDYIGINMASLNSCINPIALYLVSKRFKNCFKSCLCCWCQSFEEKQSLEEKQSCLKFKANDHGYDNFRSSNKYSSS
T8 sequence (P21452 whole entry): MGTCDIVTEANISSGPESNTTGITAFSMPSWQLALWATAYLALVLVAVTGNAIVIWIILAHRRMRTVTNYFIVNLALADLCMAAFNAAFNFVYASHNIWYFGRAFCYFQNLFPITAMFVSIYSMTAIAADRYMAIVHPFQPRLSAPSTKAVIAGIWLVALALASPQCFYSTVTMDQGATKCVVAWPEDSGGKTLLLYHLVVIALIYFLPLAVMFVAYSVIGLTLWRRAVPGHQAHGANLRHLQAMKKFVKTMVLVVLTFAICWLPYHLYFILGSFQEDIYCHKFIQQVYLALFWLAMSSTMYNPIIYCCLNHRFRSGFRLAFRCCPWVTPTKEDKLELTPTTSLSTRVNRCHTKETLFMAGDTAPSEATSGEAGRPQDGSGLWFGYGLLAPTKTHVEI
T3 sequence (P32297 32-505): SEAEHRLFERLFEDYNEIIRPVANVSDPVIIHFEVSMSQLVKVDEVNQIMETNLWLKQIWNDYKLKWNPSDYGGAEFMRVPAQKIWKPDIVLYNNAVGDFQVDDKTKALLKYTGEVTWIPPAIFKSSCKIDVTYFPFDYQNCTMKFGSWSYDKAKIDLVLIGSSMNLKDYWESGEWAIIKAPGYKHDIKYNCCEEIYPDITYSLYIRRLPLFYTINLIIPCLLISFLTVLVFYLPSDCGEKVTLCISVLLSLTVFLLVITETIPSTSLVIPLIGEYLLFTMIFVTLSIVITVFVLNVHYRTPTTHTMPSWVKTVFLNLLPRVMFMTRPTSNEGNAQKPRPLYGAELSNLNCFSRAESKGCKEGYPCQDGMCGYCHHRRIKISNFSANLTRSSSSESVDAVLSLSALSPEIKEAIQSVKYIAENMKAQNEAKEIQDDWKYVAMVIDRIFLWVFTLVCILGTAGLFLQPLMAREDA
T3 sequence (P30926 22-498): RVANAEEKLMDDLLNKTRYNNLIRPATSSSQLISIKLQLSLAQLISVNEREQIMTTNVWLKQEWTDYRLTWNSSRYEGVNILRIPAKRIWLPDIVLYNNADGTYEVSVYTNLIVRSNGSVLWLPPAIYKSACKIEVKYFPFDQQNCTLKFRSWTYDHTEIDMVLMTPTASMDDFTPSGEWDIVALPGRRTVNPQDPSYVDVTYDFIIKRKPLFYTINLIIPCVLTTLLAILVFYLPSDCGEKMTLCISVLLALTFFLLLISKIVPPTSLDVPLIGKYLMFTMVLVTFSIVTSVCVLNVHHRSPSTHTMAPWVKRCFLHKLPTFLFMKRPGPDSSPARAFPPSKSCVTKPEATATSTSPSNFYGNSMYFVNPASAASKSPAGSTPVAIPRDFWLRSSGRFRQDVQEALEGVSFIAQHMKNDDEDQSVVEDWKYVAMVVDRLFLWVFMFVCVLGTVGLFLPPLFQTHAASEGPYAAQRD
T1 sequence (P48039 whole entry): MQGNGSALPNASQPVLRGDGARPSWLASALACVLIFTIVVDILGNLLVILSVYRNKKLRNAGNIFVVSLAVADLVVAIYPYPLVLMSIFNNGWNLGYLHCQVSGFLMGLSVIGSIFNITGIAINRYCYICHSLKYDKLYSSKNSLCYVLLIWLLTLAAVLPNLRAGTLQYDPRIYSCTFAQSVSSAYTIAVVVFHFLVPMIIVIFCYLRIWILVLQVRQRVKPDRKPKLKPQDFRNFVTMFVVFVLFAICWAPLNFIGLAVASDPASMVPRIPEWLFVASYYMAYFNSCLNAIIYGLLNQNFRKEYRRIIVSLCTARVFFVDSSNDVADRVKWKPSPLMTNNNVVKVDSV
Sequence of Androgen receptor (NHR) (P10275 whole entry): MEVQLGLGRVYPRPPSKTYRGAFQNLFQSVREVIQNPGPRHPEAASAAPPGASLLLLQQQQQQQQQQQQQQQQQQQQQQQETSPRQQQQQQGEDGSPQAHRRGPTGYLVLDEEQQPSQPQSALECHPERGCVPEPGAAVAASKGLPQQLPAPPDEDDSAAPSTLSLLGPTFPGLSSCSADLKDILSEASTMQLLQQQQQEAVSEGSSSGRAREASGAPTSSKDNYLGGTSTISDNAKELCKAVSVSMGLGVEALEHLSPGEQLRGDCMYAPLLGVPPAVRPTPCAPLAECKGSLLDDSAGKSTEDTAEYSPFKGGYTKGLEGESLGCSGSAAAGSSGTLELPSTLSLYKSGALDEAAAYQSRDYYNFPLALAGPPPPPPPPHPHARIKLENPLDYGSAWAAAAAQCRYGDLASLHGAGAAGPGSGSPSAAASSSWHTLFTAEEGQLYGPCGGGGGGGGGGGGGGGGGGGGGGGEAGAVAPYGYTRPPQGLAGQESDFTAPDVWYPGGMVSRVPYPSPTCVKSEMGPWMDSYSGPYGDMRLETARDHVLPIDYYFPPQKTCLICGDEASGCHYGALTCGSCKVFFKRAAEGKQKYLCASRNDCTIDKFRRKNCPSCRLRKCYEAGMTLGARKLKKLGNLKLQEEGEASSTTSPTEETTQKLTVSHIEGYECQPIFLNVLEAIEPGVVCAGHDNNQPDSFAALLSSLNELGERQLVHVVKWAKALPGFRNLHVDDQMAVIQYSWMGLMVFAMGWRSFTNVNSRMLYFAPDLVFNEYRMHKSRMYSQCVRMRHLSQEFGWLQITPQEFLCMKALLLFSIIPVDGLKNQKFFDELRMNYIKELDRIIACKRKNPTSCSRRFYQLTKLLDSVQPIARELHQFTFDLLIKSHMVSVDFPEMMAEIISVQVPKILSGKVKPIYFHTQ
T7 sequence (P35462 whole entry): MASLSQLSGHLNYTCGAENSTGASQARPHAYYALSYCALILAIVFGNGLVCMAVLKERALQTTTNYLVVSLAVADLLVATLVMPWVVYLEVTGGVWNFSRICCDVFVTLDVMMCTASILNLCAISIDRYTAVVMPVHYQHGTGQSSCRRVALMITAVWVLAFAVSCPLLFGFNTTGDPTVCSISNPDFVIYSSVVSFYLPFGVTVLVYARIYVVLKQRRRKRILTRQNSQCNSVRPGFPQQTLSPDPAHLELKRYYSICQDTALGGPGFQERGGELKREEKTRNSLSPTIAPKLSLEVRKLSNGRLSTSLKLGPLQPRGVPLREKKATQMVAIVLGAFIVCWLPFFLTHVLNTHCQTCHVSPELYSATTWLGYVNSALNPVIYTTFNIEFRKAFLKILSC

How did the IC50 (Melatonin receptor MT1; [4]) turn out when `COc1cc(C(F)(F)F)c(OC)cc1[C@@H]1CCCNC1` [(S)-11, 3-(2,5-Dimethoxy-4-(trifluoromethyl)phenyl)piperidine Hydrochloride] was run?
The IC50 was over 10 µM.

What about the inhibition at 10 µM (Melatonin receptor MT1; [5]) of the same compound?
Its inhibition at 10 µM is 7%.

What about the IC50 (Endothelin receptor ETB; [4]) of the same compound?
The IC50 was over 10 µM.

What about the inhibition at 10 µM (Endothelin receptor ETB; [5]) of the same compound?
The inhibition at 10 µM was -6%.

And the IC50 [1]?
Its IC50 is about 10 µM.

And the inhibition at 10 µM [1, 5]?
The inhibition at 10 µM was 51%.

What about the IC50 (5-HT1B; [4]) of the same compound?
The IC50 was 1 to 10 µM.

And the inhibition at 1 µM (5-HT1B; [5])?
The inhibition at 1 µM was 21%.

What about the inhibition at 10 µM (5-HT1B; [5]) of the same compound?
The inhibition at 10 µM was 68%.

What about the IC50 (Bradykinin receptor B1; [4]) of the same compound?
The IC50 was over 10 µM.

And the inhibition at 10 µM (Bradykinin receptor B1; [5])?
The inhibition at 10 µM was 12%.

What about the “% inhibition of the specific radioligand binding” value (“% inhibition” for short) (NMDA receptor (PCP); (S)-11 10 μM, n=1) of the same compound?
The value was 4%.

And the IC50 (NMDA receptor (PCP); [4])?
The IC50 was over 10 µM.

And the IC50 (M5 (muscarinic receptor); [4])?
Its IC50 is about 1 µM.

What about the inhibition at 0.1 µM (M5 (muscarinic receptor); [5]) of the same compound?
Its inhibition at 0.1 µM is 9%.

What about the inhibition at 1 µM (M5 (muscarinic receptor); [5]) of the same compound?
The inhibition at 1 µM was 57%.

What about the inhibition at 10 µM (M5 (muscarinic receptor); [5]) of the same compound?
The inhibition at 10 µM was 92%.

And the inhibition at 10 µM [2]?
Its inhibition at 10 µM is 40%.

What about the Papp A→B at […] (MDR1 (P-gp)) of the same compound?
Its Papp A→B at […] is 18.4 ×10⁻⁶ cm/s.

What about the Papp B→A at […] (MDR1 (P-gp)) of the same compound?
The Papp B→A at […] was 17.3 ×10⁻⁶ cm/s.

And the Papp A→B at […], 2 µM (MDR1 (P-gp); Figure 6)?
The Papp A→B at […], 2 µM was 18.6 ×10⁻⁶ cm/s.

And the Papp B→A at […], 2 µM (MDR1 (P-gp); Figure 6)?
Its Papp B→A at […], 2 µM is 17.3 ×10⁻⁶ cm/s.

What about the recovery at […] (MDR1; read-out: Mean Recovery A to B) of the same compound?
Its recovery at […] is 70%.

What about the recovery at […] (MDR1; read-out: Mean Recovery B to A) of the same compound?
Its recovery at […] is 92%.

And the IC50 (Tachykinin receptor NK2; [4])?
Its IC50 is over 10 µM.

And the inhibition at 10 µM (Tachykinin receptor NK2; [5])?
Its inhibition at 10 µM is 1%.

And the IC50 (K+ Channel (hERG))?
Its IC50 is over 10 µM.

What about the inhibition at 10 µM (hERG K+ channel) of the same compound?
The inhibition at 10 µM was 32%.

What about the IC50 (5-HT1A; [4]) of the same compound?
Its IC50 is 0.1 to 1 µM.

What about the inhibition at 0.1 µM (5-HT1A; [5]) of the same compound?
The inhibition at 0.1 µM was 20%.

And the inhibition at 1 µM (5-HT1A; [5])?
Its inhibition at 1 µM is 64%.

And the inhibition at 10 µM (5-HT1A; [5])?
The inhibition at 10 µM was 90%.

And the IC50 (Androgen receptor (NHR))?
The IC50 was over 10 µM.

What about the “% inhibition” value (GABAA receptor (benzod.); (S)-11 10 μM, n=1) of the same compound?
Its value is -14%.

What about the IC50 (GABAA receptor (benzod.); [4]) of the same compound?
Its IC50 is over 10 µM.

And the “% inhibition” value (Purinergic receptor P2X; (S)-11 10 μM, n=1)?
Its value is -30%.

And the IC50 (Purinergic receptor P2X; [4])?
Its IC50 is over 10 µM.

And the IC50 (β1 (adrenergic receptor); [4])?
The IC50 was over 10 µM.

What about the inhibition at 10 µM (β1 (adrenergic receptor); [5]) of the same compound?
The inhibition at 10 µM was 38%.

And the IC50 [3, 4]?
Its IC50 is over 10 µM.

And the inhibition at 1 µM [3, 5]?
The inhibition at 1 µM was 1%.

What about the inhibition at 10 µM [3, 5] of the same compound?
The inhibition at 10 µM was 34%.
